From article PMC8857485, “Prostate secretory protein 94 inhibits sterol binding and export by the mammalian CAP protein CRISP2 in a calcium-sensitive manner” (The Journal of Biological Chemistry, 2022)
Positions count from the first letter of the chain named. Counter-ions that a name gives are not always drawn. Like-named read-outs stand apart in the source and are kept apart here.

Experiments:
Set-up in all cases: species or system mammalian
CRISP2^L98G Y99P = molecular target: T1, CRISP2^L98G Y99P (Homo sapiens, UniProt P16562, L98G/Y99P); assay: MST binding to CRISP2 double mutant L98G Y99P
T1 construct: made in house; host or cells: E. coli
T1 sequence (P16562 22-243 L98G/Y99P): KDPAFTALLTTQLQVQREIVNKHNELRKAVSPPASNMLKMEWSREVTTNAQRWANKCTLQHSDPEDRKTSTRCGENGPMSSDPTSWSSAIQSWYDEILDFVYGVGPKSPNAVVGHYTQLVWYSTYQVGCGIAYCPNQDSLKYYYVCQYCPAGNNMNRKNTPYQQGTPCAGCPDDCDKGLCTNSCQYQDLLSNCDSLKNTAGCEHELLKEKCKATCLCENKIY
Procedure: (§1) Next, we generated all three double mutant combinations of CRISP2: N97P L98G, N97P Y99P, and L98G Y99P. These three double mutant versions of CRISP2 were again expressed as His-tagged proteins in E. coli and purified, and their capacity to bind sterols in the presence or absence of PSP94 was assessed by MST. […] The capacity of the CRISP2^L98G Y99P double mutant to bind sterols even in the presence of PSP94 was confirmed by the in vivo sterol export assay (Fig. 6, A and B). When expressed in yeast cells, the CRISP2^L98G Y99P double mutant was stably expressed and secreted as monitored by Western blotting (Fig. 6C).
(§2) MST experiments were performed to assess protein–protein, protein–lipid, and protein–calcium interactions using a Monolith NT.115 (Nanotemper Technologies). Proteins were labeled using the RED-tris-NTA His tag protein labeling kit. Labeled CAP proteins, 100 nM, were mixed with a serial dilution of unlabeled PSP94, PSP9^F24G, cholesterol sulfate, or calcium chloride, prepared in binding buffer (20 mM Tris pH 7.5, 30 mM NaCl, 0.05% Triton X-100). Samples were loaded into MST standard capillaries, and MST measurements were performed using an 80% laser power setting. The dissociation constant Kd was obtained by plotting the normalized fluorescence (Fnorm) against the logarithm of ligand concentration. Experiments were performed in triplicates, and data were fitted using the Kd model of the MO.Affinity Analysis software (Nanotemper Technologies). For binding inhibition studies, CAP proteins and PSP94 were preincubated for 5 min at 24 °C before performing binding studies with cholesterol sulfate.

CRISP2^N97P L98G = molecular target: T2, CRISP2^N97P L98G (Homo sapiens, UniProt P16562, L98G/N97P); assay: MST binding to CRISP2 double mutant N97P L98G; details: absence of PSP94, read-out: Kd, sterol binding by CRISP2^N97P L98G
T2 construct: made in house; host or cells: E. coli
T2 sequence (P16562 22-243 N97P/L98G): T1 sequence (P16562 22-243 L98G/Y99P) with N76P, P78Y
Procedure: as §1
as §2, with “Experiments were performed in triplicates, and data were fitted using the Kd model of the MO.Affinity Analysis software (Nanotemper Technologies). For binding inhibition studies, CAP proteins and PSP94 were preincubated for 5 min at 24 °C before performing binding studies with cholesterol sulfate.” left out

CRISP2 N97P = molecular target: T3, CRISP2 N97P (Homo sapiens, UniProt P16562, N97P); assay: MST binding to CRISP2 single mutant N97P; details: absence of PSP94, read-out: Kd, sterol binding by CRISP2 N97P
T3 construct: made in house; host or cells: E. coli
T3 sequence (P16562 22-243 N97P): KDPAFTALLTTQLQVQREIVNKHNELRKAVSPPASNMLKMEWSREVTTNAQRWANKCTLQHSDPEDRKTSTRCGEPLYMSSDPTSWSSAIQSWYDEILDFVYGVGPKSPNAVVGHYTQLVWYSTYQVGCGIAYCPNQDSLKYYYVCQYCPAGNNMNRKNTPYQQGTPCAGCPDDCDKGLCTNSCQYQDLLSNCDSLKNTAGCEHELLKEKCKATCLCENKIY
Description: (§3) This interaction is thus located outside the hydrophobic loop that harbors the sterol-binding CBM. Based on these structural considerations, it is thus not apparent why and how the interaction between PSP94 and CRISP2 would block sterol binding at the CBM. To investigate this question in more detail, we first performed computational docking studies to identify residues in CRISP2 that are critical for the interaction with PSP94. […] Two of these three interacting residues, N97 and L98, are conserved in all three CAP family members tested here, CRISP2, CRISP3, and Pry1 (Fig. 4A). […]
(§4) MST experiments were performed to assess protein–protein, protein–lipid, and protein–calcium interactions using a Monolith NT.115 (Nanotemper Technologies). […] The dissociation constant Kd was obtained by plotting the normalized fluorescence (Fnorm) against the logarithm of ligand concentration. […]
(§5) Quadruple mutant cells lacking the acyl-CoA synthetases FAA1 and FAA4 and the yeast CAP family members PRY1 and PRY3 (faa1∆ faa4∆ pry1∆ pry3∆) expressing different combinations of plasmid-borne copies of PRY1, CRISP2, and or PSP94, or their respective empty vectors (pRS423 or pRS426) were cultivated overnight. The export of fatty acids into the culture medium was then quantified. […]

CRISP2 L98G = molecular target: T4, CRISP2 L98G (Homo sapiens, UniProt P16562, L98G); assay: MST binding to CRISP2 single mutant L98G; details: absence of PSP94, read-out: Kd, sterol binding by CRISP2 L98G
T4 construct: made in house; host or cells: E. coli
T4 sequence (P16562 22-243 L98G): as the sequence (P16562 22-243 N97P) above, with P76N, L77G counted along it
Description: as §3, §4, §5

## CC(C)CCC[C@@H](C)[C@H]1CC[C@H]2[C@@H]3CC=C4C[C@@H](OS(=O)(=O)O)CC[C@]4(C)[C@H]3CC[C@]12C [cholesterol sulfate]
CRISP2^L98G Y99P; +PSP94, read-out: Kd, sterol binding by CRISP2^L98G Y99P in presence of PSP94
  Kd: 0.5 µM
CRISP2^L98G Y99P; PSP94^F24G preincubated 5 min at 24 °C, read-out: Kd, sterol binding by CRISP2^L98G Y99P in presence of PSP94^F24G
  Kd: 4.5 ± 2.08 µM
CRISP2^L98G Y99P; absence of PSP94, read-out: Kd, sterol binding by CRISP2^L98G Y99P
  Kd: 2.2 ± 1.7 µM
CRISP2^N97P L98G
  Kd: 3.8 ± 1.9 µM
CRISP2 N97P
  Kd: 3.1 ± 1.5 µM
CRISP2 L98G
  Kd: 95 ± 2.1 µM
